Tests used:
Test in all cases: relative viability (nuclei count vs DMSO), 5 days (fraction); higher = more cells survive
[1] = compound: C1CNCCC1C2=CC(=NN2)C3=CC=NC=C3 + N=C(N)NC(=N)NCCc1ccccc1 [Phenformin] (partner 250 µM)
How it was run: (§1)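 One day after seeding in 1536-well plates, lung cancer cell lines were dosed by pin tool. Dosing was either single-drug or a fixed anchor-drug dose plus five library-drug doses (not always all listed) in √10 steps. After 5 days, nuclei were stained in one fix-and-stain step and counted on 4× images, and relative viability is the nuclei count of treated wells over that of vehicle wells, given as the median of duplicate plates.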

[2] = compound: C[C@@H](N)c1ccc(C(=O)Nc2ccnc3[nH]ccc23)cc1 + CCNC(=O)c1noc(-c2cc(C(C)C)c(O)cc2O)c1-c1ccc(CN2CCOCC2)cc1 [Luminespib] (partner 0.01 µM)
How it was run: as §1

[3] = compound: C[C@@H](N)c1ccc(C(=O)Nc2ccnc3[nH]ccc23)cc1 + C[C@@H](Oc1cc(-c2cnn(C3CCNCC3)c2)cnc1N)c1c(Cl)ccc(F)c1Cl [Crizotinib] (partner 1 µM)
How it was run: as §1

Tanzisertib + Lapatinib = compound: O[C@H]1CC[C@H](Nc2ncc3nc(Nc4c(F)cc(F)cc4F)n([C@H]4CCOC4)c3n2)CC1 [Tanzisertib] + CS(=O)(=O)CCNCc1ccc(-c2ccc3ncnc(Nc4ccc(OCc5cccc(F)c5)c(Cl)c4)c3c2)o1 [Lapatinib] (partner 2 µM)
How it was run: as §1

Cell Line | relative viability ([1]; first compound 0.08 µM) | relative viability ([1]; first compound 0.8 µM) | relative viability ([1]; first compound 2.53 µM) | relative viability ([1]; first compound 8 µM) | relative viability ([2]; first compound 0.04 µM) | relative viability ([2]; first compound 0.1265 µM) | relative viability ([2]; first compound 0.4 µM) | relative viability ([2]; first compound 1.265 µM) | relative viability ([2]; first compound 4 µM) | relative viability ([3]; first compound 0.04 µM) | relative viability ([3]; first compound 0.1265 µM) | relative viability ([3]; first compound 0.4 µM) | relative viability ([3]; first compound 1.265 µM) | relative viability ([3]; first compound 4 µM) | relative viability (Tanzisertib + Lapatinib; first compound 0.08 µM) | relative viability (Tanzisertib + Lapatinib; first compound 0.253 µM) | relative viability (Tanzisertib + Lapatinib; first compound 0.8 µM) | relative viability (Tanzisertib + Lapatinib; first compound 2.53 µM) | relative viability (Tanzisertib + Lapatinib; first compound 8 µM)
201T | 0.434 | 0.464 | 0.461 | 0.415 | 1.02 | 1.02 | 1.08 | 1.14 | 1.14 | 1.02 | 1.02 | 0.959 | 1.09 | 1.1 | 1.04 | 1.02 | 0.997 | 1.02 | 1.07
A549 | 0.107 | 0.153 | 0.199 | 0.156 |  |  |  |  |  | 0.833 | 0.793 | 0.734 | 0.504 | 0.268 | 1.04 | 0.92 | 0.921 | 1.05 | 1.07
A-427 | 0.375 | 0.38 | 0.323 | 0.299 | 0.79 | 0.898 | 0.976 |  | 0.804 | 0.875 | 0.882 | 0.959 |  | 0.894 | 1.19 | 1.18 | 1.04 | 1.04 | 1.12
ABC-1 | 0.244 | 0.195 | 0.259 | 0.257 | 1 | 0.678 | 0.529 | 0.553 | 0.811 | 1.47 | 1.19 | 1.4 | 1.6 | 0.857 | 1.17 | 1 |  | 1.36 | 1.41
BEN | 0.312 | 0.172 | 0.243 | 0.271 | 0.369 | 0.332 | 0.44 | 0.29 | 0.286 | 0.952 | 0.828 | 0.918 | 1.09 | 0.675 | 0.773 | 0.806 | 0.721 | 0.795 | 0.712
CAL-12T | 0.598 | 0.663 | 0.654 | 0.616 | 0.297 | 0.421 | 0.322 | 0.432 | 0.22 | 0.795 | 0.78 | 0.845 | 0.529 | 0.252 | 0.635 | 0.617 | 0.795 | 0.762 | 0.72
COR-L23 | 0.429 | 0.465 | 0.469 | 0.431 | 0.788 | 0.804 | 0.644 | 0.437 | 0.161 | 0.64 | 0.741 | 0.647 | 0.412 | 0.17 | 1.12 | 0.954 | 0.961 | 1.07 | 0.98
COR-L 105 | 0.541 | 0.419 | 0.508 | 0.528 | 0.733 | 0.635 | 0.596 | 0.559 | 0.346 | 0.721 | 0.747 | 0.652 | 0.537 | 0.408 | 0.379 | 0.355 | 0.353 | 0.332 | 0.275
Calu-6 |  |  |  |  |  |  |  |  |  | 0.761 | 0.76 | 0.741 | 0.682 | 0.489 | 1.14 | 1.11 | 1.07 | 1.05 | 1
ChaGo-K-1 | 0.458 | 0.527 | 0.462 | 0.462 | 0.554 | 0.641 | 0.629 | 0.562 | 0.436 | 1.07 | 1.17 | 1.1 |  | 0.846 |  |  |  |  | 
EBC-1 |  |  |  |  |  |  |  |  |  | 0.216 | 0.184 | 0.189 | 0.141 | 0.145 | 0.216 | 0.213 | 0.204 | 0.189 | 0.178
EKVX | 0.269 | 0.209 | 0.255 | 0.209 | 0.943 | 0.987 | 1.08 | 0.879 | 0.942 | 0.979 | 1.03 | 1.04 | 1.05 | 0.963 | 0.161 | 0.186 | 0.208 | 0.394 | 0.197
EMC-BAC-2 | 0.499 | 0.609 | 0.661 | 0.552 | 1.15 | 1.22 | 1.25 | 1.09 | 1.04 | 0.806 | 0.793 | 0.707 | 0.764 | 0.655 | 1.03 | 0.923 | 0.931 | 0.867 | 0.841
EPLC-272H | 0.317 | 0.299 | 0.35 | 0.396 | 0.402 | 0.602 | 0.188 | 0.491 | 0.405 | 0.922 | 0.891 | 0.957 |  | 0.61 | 0.929 | 1.06 | 0.955 | 1.22 | 1.03
H3255 | 0.366 | 0.323 | 0.429 | 0.434 | 0.778 | 1.04 | 1 | 0.763 | 0.944 | 0.862 | 0.979 | 1.04 | 0.972 | 0.761 | 0.231 | 0.29 | 0.256 | 0.256 | 0.205
HARA | 0.516 | 0.403 | 0.43 | 0.491 |  | 0.738 | 0.675 |  | 0.608 | 1.18 | 1.13 | 1.21 | 0.835 | 0.735 | 0.889 | 0.809 | 0.81 | 0.797 | 0.771
HCC-15 | 0.401 | 0.54 | 0.494 | 0.469 | 0.391 | 0.329 | 0.291 |  | 0.153 | 0.903 | 0.781 | 0.805 |  | 0.72 | 0.974 | 0.854 | 0.888 | 0.916 | 0.659
HCC-44 | 0.31 | 0.194 | 0.276 | 0.322 | 0.922 | 1.11 | 1.31 | 1.21 | 0.486 | 0.82 | 0.776 | 0.86 | 0.995 | 0.652 | 1.07 | 1.16 | 1.12 | 1.1 | 1.25
HCC-78 | 0.695 | 0.56 | 0.68 | 0.719 |  |  |  |  |  | 0.383 | 0.347 | 0.363 | 0.453 | 0.32 | 0.72 | 0.7 | 0.827 | 0.786 | 0.303

— the supplement of paper PMC10307832
